Experiments:
Assay in all cases: relative viability (nuclei count vs DMSO), 5 days (fraction); higher = more cells survive
Vismodegib + Pemetrexed = compound: CS(=O)(=O)c1ccc(C(=O)Nc2ccc(Cl)c(-c3ccccn3)c2)c(Cl)c1 [Vismodegib] + Nc1nc2[nH]cc(CCc3ccc(C(=O)N[C@@H](CCC(=O)O)C(=O)O)cc3)c2c(=O)[nH]1 [Pemetrexed] (partner 0.2 µM)
Method in brief: (§1)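 Relative viability is defined as nuclei in treated wells over nuclei in vehicle wells. Duplicate plates were run and medians reported. Lung cancer cell lines in 1536-well plates were dosed by pin tool one day after seeding, with one drug or with a fixed anchor-drug dose plus five library-drug doses (not always all listed) in √10 steps, and nuclei were counted after 5 days.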

VE-821 + Olaparib = compound: CS(=O)(=O)c1ccc(-c2cnc(N)c(C(=O)Nc3ccccc3)n2)cc1 [VE-821] + O=C(c1cc(Cc2n[nH]c(=O)c3ccccc23)ccc1F)N1CCN(C(=O)C2CC2)CC1 [Olaparib] (partner 8 µM)
Method in brief: as §1

Vismodegib + Olaparib = compound: CS(=O)(=O)c1ccc(C(=O)Nc2ccc(Cl)c(-c3ccccn3)c2)c(Cl)c1 [Vismodegib] + O=C(c1cc(Cc2n[nH]c(=O)c3ccccc23)ccc1F)N1CCN(C(=O)C2CC2)CC1 [Olaparib] (partner 8 µM)
Method in brief: as §1

Vismodegib + Phenformin = compound: CS(=O)(=O)c1ccc(C(=O)Nc2ccc(Cl)c(-c3ccccn3)c2)c(Cl)c1 [Vismodegib] + N=C(N)NC(=N)NCCc1ccccc1 [Phenformin] (partner 250 µM)
Method in brief: as §1

| Cell Line | relative viability (Vismodegib + Pemetrexed; first compound 0.08 µM) | relative viability (Vismodegib + Pemetrexed; first compound 0.253 µM) | relative viability (Vismodegib + Pemetrexed; first compound 0.8 µM) | relative viability (Vismodegib + Pemetrexed; first compound 2.53 µM) | relative viability (Vismodegib + Pemetrexed; first compound 8 µM) | relative viability (VE-821 + Olaparib; first compound 0.08 µM) | relative viability (VE-821 + Olaparib; first compound 0.253 µM) | relative viability (VE-821 + Olaparib; first compound 0.8 µM) | relative viability (VE-821 + Olaparib; first compound 2.53 µM) | relative viability (VE-821 + Olaparib; first compound 8 µM) | relative viability (Vismodegib + Olaparib; first compound 0.08 µM) | relative viability (Vismodegib + Olaparib; first compound 0.253 µM) | relative viability (Vismodegib + Olaparib; first compound 0.8 µM) | relative viability (Vismodegib + Olaparib; first compound 2.53 µM) | relative viability (Vismodegib + Olaparib; first compound 8 µM) | relative viability (Vismodegib + Phenformin; first compound 0.08 µM) | relative viability (Vismodegib + Phenformin; first compound 0.253 µM) | relative viability (Vismodegib + Phenformin; first compound 0.8 µM) | relative viability (Vismodegib + Phenformin; first compound 2.53 µM) | relative viability (Vismodegib + Phenformin; first compound 8 µM) |
| --- | --- | --- | --- | --- | --- | --- | --- | --- | --- | --- | --- | --- | --- | --- | --- | --- | --- | --- | --- | --- |
| NCI-H2342 | 0.769 | 0.821 | 0.81 | 0.611 | 0.719 | 0.474 | 0.469 | 0.379 | 0.521 | 0.431 | 0.402 | 0.421 | 0.418 | 0.52 | 0.406 | 0.632 | 0.612 | 0.581 | 0.475 | 0.529 |
| NCI-H1623 | – | – | – | – | – | – | – | – | – | – | – | – | – | – | – | 0.553 | 0.577 | 0.661 | 0.536 | 0.578 |
| NCI-H520 | 0.743 | 0.619 | 0.827 | 0.709 | 0.666 | 0.321 | 0.386 | 0.307 | 0.275 | 0.228 | 0.314 | 0.366 | 0.397 | 0.281 | 0.354 | 0.535 | 0.576 | 0.63 | 0.574 | 0.688 |
| NCI-H2405 | 1.13 | 1.03 | 1.03 | 1.01 | 1.01 | 0.937 | 0.828 | 0.846 | 0.997 | 0.805 | 0.856 | 0.909 | 0.823 | 0.833 | 0.875 | 0.336 | 0.386 | 0.381 | 0.381 | 0.39 |
| PC-3 [JPC-3] | 1.05 | 1.03 | 1.13 | 1.16 | 0.651 | 1.19 | 1.15 | 1.24 | 1.12 | 0.958 | 1.09 | 1.11 | 1.03 | 1.09 | 1.17 | 0.483 | 0.48 | 0.457 | 0.483 | 0.483 |
| EBC-1 | – | – | – | – | – | 0.75 | 0.774 | 0.74 | 0.562 | 0.416 | 0.662 | 0.674 | 0.751 | 0.69 | 0.74 | – | – | – | – | – |
| NCI-H2347 | 0.423 | 0.423 | 0.459 | 0.435 | 0.458 | 0.574 | 0.531 | 0.598 | 0.618 | 0.635 | 0.579 | 0.548 | 0.621 | 0.615 | 0.597 | 0.336 | 0.477 | 0.448 | 0.361 | 0.464 |
| LXF-289 | 0.897 | 0.94 | 0.933 | 0.978 | 0.759 | 1.3 | 1.05 | 1.24 | 1.37 | 0.903 | 1.05 | 1.01 | 1.11 | 1.02 | 0.94 | 0.524 | 0.495 | 0.508 | 0.517 | 0.467 |
| HCC-78 | 0.907 | 0.951 | 0.961 | 0.785 | 0.891 | 0.8 | 0.931 | 0.772 | 0.946 | 0.736 | 0.676 | 0.79 | 0.639 | 0.755 | 0.844 | 0.664 | 0.704 | 0.575 | 0.615 | 0.683 |
| HCC-366 | 0.164 | 0.17 | 0.186 | 0.166 | 0.158 | 0.654 | 0.342 | 0.19 | 0.0816 | 0.0499 | 0.343 | 0.364 | 0.378 | 0.431 | 0.372 | 0.683 | 0.614 | 0.631 | 0.619 | 0.586 |
| NCI-H2023 | 0.256 | 0.216 | 0.219 | 0.235 | 0.248 | 0.576 | 0.4 | 0.222 | 0.169 | 0.0964 | 0.496 | 0.448 | 0.519 | 0.44 | 0.541 | 0.367 | 0.364 | 0.43 | 0.384 | 0.401 |
| NCI-H1734 | 0.433 | 0.399 | 0.433 | 0.429 | 0.414 | 0.708 | 0.673 | 0.558 | 0.498 | 0.303 | 0.574 | 0.515 | 0.605 | 0.59 | 0.672 | 0.384 | 0.316 | 0.396 | 0.322 | 0.384 |
| SK-LU-1 | 0.971 | 1.03 | 0.982 | 0.909 | 0.845 | 0.51 | 0.497 | 0.462 | 0.401 | 0.324 | 0.343 | 0.451 | 0.481 | 0.469 | 0.522 | 0.569 | 0.489 | 0.538 | 0.477 | 0.705 |
| NCI-H3122 | 0.201 | 0.199 | 0.228 | 0.184 | 0.19 | 0.622 | 0.495 | 0.432 | 0.378 | 0.221 | 0.613 | 0.598 | 0.614 | 0.664 | 0.65 | 0.377 | 0.356 | 0.362 | 0.365 | 0.36 |
| Calu-6 | – | – | – | – | – | 0.626 | 0.597 | 0.566 | 0.386 | 0.226 | 0.589 | 0.558 | 0.562 | 0.434 | 0.587 | – | – | – | – | – |
| IA-LM | – | – | – | – | – | 0.852 | 0.734 | 0.832 | 0.801 | 0.36 | 0.841 | 0.853 | 0.892 | 0.773 | 0.941 | – | – | – | – | – |
| NCI-H1648 | 0.679 | 0.832 | 0.731 | 0.782 | 0.702 | 1.14 | – | 0.909 | 0.922 | 0.468 | 0.781 | 0.767 | 0.46 | 0.645 | 0.872 | – | – | – | – | – |
| NCI-H1703 | – | – | – | – | – | 0.417 | 0.506 | 0.416 | 0.462 | 0.437 | 0.495 | 0.42 | 0.543 | 0.349 | 0.44 | – | – | – | – | – |
| ABC-1 | – | – | – | – | – | 0.776 | 0.873 | 0.755 | 0.869 | 0.757 | 0.76 | 0.788 | 0.725 | 1.01 | 1.09 | 0.231 | 0.253 | 0.241 | 0.24 | 0.235 |
| NCI-H1299 | – | – | – | – | – | 1.04 | 1.01 | 1.07 | 0.896 | 0.527 | 0.913 | 0.964 | 0.967 | 0.935 | 0.951 | – | – | – | – | – |
